Data taken from US20240368139A1, “NOVEL MODULATORS OF EHMT1 AND EHMT2 AND THERAPEUTIC USE THEREOF” (Tango Therapeutics, Inc., priority 2021, published 2024).

Experiments:
human EHMT1 982-1266 = target: T1, human EHMT1 982-1266 (Homo sapiens, UniProt Q9H9B1); experiment: EHMT1 enzyme assay on histone peptide substrate (3H-SAM SPA); conditions: EHMT1 IC50, recombinant human EHMT1 982-1266, histone peptide substrate
T1 sequence (Q9H9B1 982-1266): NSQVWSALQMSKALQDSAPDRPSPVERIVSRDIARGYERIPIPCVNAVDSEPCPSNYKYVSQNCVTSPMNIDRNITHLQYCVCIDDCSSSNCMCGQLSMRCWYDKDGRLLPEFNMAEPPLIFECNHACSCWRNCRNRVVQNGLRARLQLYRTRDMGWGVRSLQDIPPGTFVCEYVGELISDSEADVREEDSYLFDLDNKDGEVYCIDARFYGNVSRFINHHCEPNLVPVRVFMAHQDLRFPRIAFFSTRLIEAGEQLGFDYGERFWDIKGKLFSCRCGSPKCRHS

human EHMT2 913-1193 = target: T2, human EHMT2 913-1193 (Homo sapiens, UniProt Q96KQ7); experiment: EHMT2 enzyme assay on histone peptide substrate (3H-SAM SPA); conditions: EHMT2 IC50, recombinant human EHMT2 913-1193, histone peptide substrate
T2 sequence (Q96KQ7 913-1193): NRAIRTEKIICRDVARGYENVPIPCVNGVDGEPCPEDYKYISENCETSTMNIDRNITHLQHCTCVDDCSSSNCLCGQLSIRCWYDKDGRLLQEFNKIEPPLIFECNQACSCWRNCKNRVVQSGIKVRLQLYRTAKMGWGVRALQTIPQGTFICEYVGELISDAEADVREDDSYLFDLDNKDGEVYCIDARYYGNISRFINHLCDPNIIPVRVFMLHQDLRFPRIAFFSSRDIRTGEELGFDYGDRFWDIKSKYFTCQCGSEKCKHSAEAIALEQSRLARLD

H3K9me2 in HCT116 cells = experiment: HCT116 H3K9me2 in-cell western assay; assay type: cell-based; conditions: Homo sapiens, HCT-116, 72 h, HCT116 cells, 72 hours incubation; read-out: H3K9me2 ICW IC50
From the text: HCT116 cell line was purchased from ATCC (Manassas, VA, USA). […] Penicillin-Streptomycin and heat inactivated fetal bovine serum were purchased from Hyclone (Logan, UT, USA). DPBS, Corning^R were purchased from VWR (Radnor, PA, USA). Triton′ X-100 was purchased from Sigma (St. Louis, MO, USA). Intercept blocking buffer, DRAQ5, Licor Odyssey Infrared Scanner were purchased from Licor Biosciences (Lincoln, NB, USA). Plate washer was purchased from BioTek (Winooski, VT, USA). […] 16% Paraformaldehyde was purchased from Electron Microscopy Sciences (Hatfield, PA, USA). HCT116 cells were maintained in complete growth medium (RPMI supplemented with 10% heat inactivated fetal bovine serum, 1% Penicillin-Streptomycin) and cultured at 37° C. under 5% CO2. N^2-(4-methoxy-3-(3-(pyrrolidin-1-yl)propoxy)phenyl)-N^4,6-dimethyl]pyrimidine-2,4-diamine (synthesis disclosed in International Application WO2017181177A1) was used as a control compound.
HCT116 cells (ATCC) were trypsinized, counted and seeded in assay medium (RPMI supplemented with 10% heat inactivated fetal bovine serum, 1% Penicillin-Streptomycin) at a concentration of 2,000 cells per well to a 384-well cell culture plate with compounds in 50 μl per well. Plates were incubated with at 37° C. under 5% CO2 for 72 hours. After the incubation, 50 μl per well of 8% paraformaldehyde in PBS was added to the plates and incubated at room temperature for 20 minutes. Plates were transferred to a BioTek (EL406) plate washer and washed 5 times with 110 μl per well of wash buffer (1×PBS containing 0.1% Triton X-100). The plates were next blocked with 50 μl of Intercept blocking buffer for 1 hour at room temperature. Blocking buffer was removed and 30 μl per well of monoclonal primary antibody of H3K9me2 (CST) diluted 1:200 in Intercept blocking buffer were added and plates were incubated overnight at 4° C. The plates were then washed 5 times with 110 μl per well of wash buffer (1×PBS containing 0.1% Triton X-100). Next 30 μl per well of secondary was added (1:400 800 CW goat anti-rabbit IgG in blocking buffer) with 1:1000 DRAQ5 in blocking buffer and incubated for 2 hours at room temperature. The plates were washed 5 times with 110 μl per well of wash buffer (1×PBS containing 0.1% Triton X-100) then with 100 μl per well of water once. Plates were allowed to dry at room temperature then imaged on a Licor Odyssey Infrared Scanner which measured integrated intensity at 700 nm and 800 nm wavelength. Both 700 and 800 channels were scanned.
The average of the ratio values (800 nm/700 nm) for each well was calculated and used to determine the percentage for each test well in the plate. Compounds were serially diluted two-fold in 0.1% DMSO for a total of 10 test concentrations beginning at 10 μM. IC50 curves were generated using duplicate wells per concentration of compound. […] IC50 values were calculated using a non-linear regression of Prism.

IC50 (human EHMT1 982-1266) [nM]	IC50 (human EHMT2 913-1193) [nM]	IC50 (H3K9me2 in HCT116 cells) [nM]	SMILES
500 to 2000	> 2000		CNc1cc(C)nc(Nc2cc3c(c(C4=CCNC(CO)CC4)c2F)OCC3)n1 (single isomer, unassigned) [Compound 159-a]
< 100	< 100		CNc1cc(C)nc(Nc2cc3c(c(C4=CCNC(C)CC4)c2F)OCCO3)n1 (single isomer, unassigned) [Compound 163]
< 100	< 100		CNc1cc(C)nc(Nc2cc3c(c(C4=CCNC(C)CC4)c2F)OCCC3)n1 (single isomer, unassigned) [Compound 164]
100 to 500	100 to 500		CNc1cc(C)nc(Nc2cc3c(c(C4=CCNCC(F)C4)c2F)OCC3)n1 (single isomer, unassigned) [Compound 168]
100 to 500	500 to 2000		CNc1cc(C)nc(Nc2cc3c(c(C4=CCNC(C)CC4)c2F)OCC3)n1 (single isomer, unassigned) [Compound 184]
> 2000	> 2000		CNc1cc(C)nc(Nc2cc3c(c(C4=CCNC(C(F)F)CC4)c2F)OCC3)n1 (single isomer, unassigned) [Compound 354-a]
< 100	< 100		CNc1cc(C)nc(Nc2cc3c(c(C4=CCNC(C)CC4)c2Cl)OCO3)n1 (single isomer, unassigned) [Compound 356]
100 to 500	500 to 2000		CNc1cc(C)nc(Nc2cc3c(c(C4=CCNCC(O)C4)c2C)OCCC3)n1 (single isomer, unassigned) [Compound 360]
500 to 2000	> 2000		CNc1cc(C)nc(Nc2cc3c(c(C4=CCNCC(OC)C4)c2F)OCC3)n1 (single isomer, unassigned) [Compound 366-a]
100 to 500	500 to 2000		CNc1cc(C)nc(Nc2cc3c(c(C4=CCNCC(OC)C4)c2F)OCC3)n1 (single isomer, unassigned) [Compound 366]
> 2000	> 2000		CNc1cc(C)nc(Nc2cc3c(c(C4=CCNC(CF)CC4)c2F)OCC3)n1 (single isomer, unassigned) [Compound 371-a]
500 to 2000	500 to 2000		CNc1cc(C)nc(Nc2cc3c(c(C4=CCNC(C)CC4)c2Cl)OCC3)n1 (single isomer, unassigned) [Compound 374-a]
100 to 500	500 to 2000		CNc1cc(C)nc(Nc2cc3c(c(C4=CCNC(C)CC4)c2F)OCO3)n1 (single isomer, unassigned) [Compound 380]
> 2000	> 2000		CNc1cc(C)nc(Nc2cc3c(c(C4=CCNC(C)CC4)c2C)OCCC3)n1 (single isomer, unassigned) [Compound 385-a]
< 100	100 to 500		CNc1cc(C)nc(Nc2cc3c(c(C4=CCNC(C)CC4)c2C)OCCC3)n1 (single isomer, unassigned) [Compound 385]
< 100	100 to 500		CNc1cc(C)nc(Nc2cc3c(c(C4=CCN(C)CC(O)C4)c2C)OCCC3)n1 (single isomer, unassigned) [Compound 418]
500 to 2000	> 2000		CNc1cc(C)nc(Nc2cc3c(c(C4=CCN(C)CC(O)C4)c2C)OCCC3)n1 (single isomer, unassigned) [Compound 419]
500 to 2000	> 2000		CNc1cc(C)nc(Nc2cc3c(c(C4=CCC(N)CC4)c2F)OCC3)n1 (single isomer, unassigned) [Compound 436]
		100 to 500	Cc1cc(N(C)C)nc(Nc2cc3c(c(C4=CCNCCC4)c2)OCC3)n1 [Compound 138]
< 100	< 100		[2H]Cc1cc(NC([2H])([2H])[2H])nc(Nc2cc3c(c(C4=CCNCCC4)c2)OCCO3)n1 [Compound 216]
100 to 500	> 2000		CNc1cc(C)nc(Nc2cc3c(c([C@H]4CC[C@H](N)CC4)c2)OCCO3)n1 [Compound 337]

The remaining lines, values behind:

SMILES	IC50 (human EHMT1 982-1266) [nM]	IC50 (human EHMT2 913-1193) [nM]	IC50 (H3K9me2 in HCT116 cells) [nM]
CNc1cc(C)nc(Nc2cc3c(c(C4=CCNC(CO)CC4)c2F)OCC3)n1 (single isomer, unassigned) [Compound 159]	< 100	100 to 500	
CNc1cc(C)nc(Nc2cc3c(c(C4=CCNC(C)CC4)c2Cl)OCCO3)n1 (single isomer, unassigned) [Compound 161-a]	500 to 2000	> 2000	
CNc1cc(C)nc(Nc2cc3c(c(C4=CCNC(C)CC4)c2Cl)OCCO3)n1 (single isomer, unassigned) [Compound 161]	< 100	< 100	
CNc1cc(C)nc(Nc2cc3c(c(C4=CCNC(C)CC4)c2F)OCCC3)n1 (single isomer, unassigned) [Compound 162]	500 to 2000	500 to 2000	
CNc1cc(C)nc(Nc2cc3c(c(C4=CCNC(C)CC4)c2F)OCCO3)n1 (single isomer, unassigned) [Compound 163-a]	500 to 2000	> 2000	
CNc1cc(C)nc(Nc2cc3c(c(C4=CCNC(C(F)F)CC4)c2F)OCC3)n1 (single isomer, unassigned) [Compound 354]	< 100	100 to 500	
CNc1cc(C)nc(Nc2cc3c(c(C4=CCNC(C)CC4)c2Cl)OCO3)n1 (single isomer, unassigned) [Compound 356-a]	500 to 2000	> 2000	
CNc1cc(C)nc(Nc2cc3c(c(C4=CCNC(C)CC4)c2Cl)OCCC3)n1 (single isomer, unassigned) [Compound 365]	100 to 500	500 to 2000	
CNc1cc(C)nc(Nc2cc3c(c(C4=CCNC(C)CC4)c2C)OCCO3)n1 (single isomer, unassigned) [Compound 368]	100 to 500	100 to 500	
CNc1cc(C)nc(Nc2cc3c(c(C4=CCNC(CF)CC4)c2F)OCC3)n1 (single isomer, unassigned) [Compound 371]	< 100	< 100	
CNc1cc(C)nc(Nc2cc3c(c(C4=CCN(C)CC(O)C4)c2C)OCC3)n1 (single isomer, unassigned) [Compound 379]	< 100	< 100	
CNc1cc(C)nc(Nc2cc3c(c(C4=CCNC(C)CC4)c2C)OCC3)n1 (single isomer, unassigned) [Compound 383-a]	500 to 2000	500 to 2000	
CNc1cc(C)nc(Nc2cc3c(c(C4=CCN(C)CC(O)C4)c2Cl)OCCC3)n1 (single isomer, unassigned) [Compound 402]			< 100
CNc1cc(C)nc(Nc2cc3c(c(C4=CCN(C)CCC4)c2F)OCCC3C)n1 (single isomer, unassigned) [Compound 406]			100 to 500
CNc1cc(C)nc(Nc2cc3c(c(C4=CCNCC(O)C4)c2Cl)OCCC3)n1 (single isomer, unassigned) [Compound 407]			< 100
CNc1cc(C)nc(Nc2cc3c(c(C4=CCNCCC4)c2F)OCCC3C)n1 (single isomer, unassigned) [Compound 414]			< 100
CNc1cc(C)nc(Nc2cc3c(c(C4=CCNCCC4)c2F)OCC[C@@H]3C)n1 (single isomer, unassigned) [Compound 415]			< 100
